Where a name gives a salt, the structure may show the parent alone.

Holding throughout (format): in vivo
In assay [1] the test system is Vav2/3^ko mouse. Put plainly: Intraocular pressure after eye-drop administration, Example 5. The following applies: for Ratio of effect on intraocular pressure: Vav2/3^ko. How it is done:
(§1) For the No. 20 animal of each of the 7-week old Vav2/3^ko and Vav2^ko, intraocular pressure was measured between 10 o'clock in the morning and noon by using a Tonometer. Then, 3 μL solution containing 0.02% benzalkonium chloride, 0.5% NaH2PO4, 0.6% Na2HPO4, 0.4% sodium chloride and 0.005% Latanoprost (manufactured by Cayman Chemical), or solution having the same composition except that no latanoplast was contained was applied to an eye of the animal based on a blind testing method. Three hours later, the intraocular pressure was measured again. In addition, to Vav2/3^ko, 3 μL eye-drop solution containing timolol maleate (Trade name; Timoptol, Merck Company, USA, 0.5% solution), or 3 μL eye-drop solution containing dorzolamide hydrochloride (Trade name; Trusopt, Merck Company, USA, 1% solution), both having a different mechanism for reducing intraocular pressure compared to latanoprost, was applied instead of the solution containing latanoprost as described above. Two hours after the application, change in the intraocular pressure was measured.

In assay [2] the test system is Vav2/3^ko mouse. Put plainly: Intraocular pressure after latanoprost eye drop, Example 4. The following applies: 8- to 9-week old Vav2/3^ko mouse; 3 μL 0.01%/PBS applied; three hours later; vs PBS control. Here is the method: For the 8- to 9-week old Vav2/3^ko mouse (No. 12), intraocular pressure was measured between 10 o'clock in the morning and noon by using a Tonometer. Then, 3 μL of latanoplast (0.01%/PBS, manufactured by Cayman Chemical) of a prostaglandin derivative as a therapeutic agent for glaucoma was applied and the intraocular pressure was measured again three hours later. As a control, a group administered only with PBS was prepared at the same time, and analysis was carried out based on Student's t-test (P<0.05). […] Therefore, it was confirmed that the mouse of the present invention is a useful model for evaluation of a therapeutic agent for glaucoma.

In assay [3] the test system is Vav2^ko mouse. Put plainly: Intraocular pressure after eye-drop administration, Example 5. As to conditions: 7-week old Vav2^ko. How it is done:
as §1

For assay [4], the system named is Vav2/3^ko mouse. As to the kind of experiment: Intraocular pressure after Y-27632 eye drop, Test Example 3. The following applies: 7-week old Vav2/3^ko; 3 μL of 1 mM/PBS solution to eye; one hour after administration. How it is done:
(§2) For No. 20 of each of the 7-week old Vav2/3^ko, Vav2^ko and Vav3^ko, intraocular pressure was measured between 10 o'clock in the morning and noon by using a Tonometer and then 3 μL of 1 mM/PBS solution of Y-27632 (Calbiochem), which is an inhibitor for Rho-associated protein kinase and has been reported to have an activity of reducing intraocular pressure by acting on an outflow tract for aqueous humor, or 3 μL of PBS solution was applied to an eye. One hour after the administration, the intraocular pressure was measured again.

The test system of assay [5] is Vav2^ko mouse. The assay is described as above. As to conditions: 7-week old Vav2^ko; 3 μL of 1 mM/PBS solution to eye; one hour after administration. Here is the method: as §2
In assay [6] the test system is Vav3^ko mouse. The description is as above. The following applies: 7-week old Vav3^ko; 3 μL of 1 mM/PBS solution to eye; one hour after administration. Here is the method:
as §2

[7] abbreviates: 3 μL eye-drop solution (timolol maleate 0.5%, dorzolamide hydrochloride 1%), two hours after application.

Take `CC(C)(C)NC[C@H](O)COc1nsnc1N1CCOCC1` [timolol maleate]: the “Ratio of effect on intraocular pressure” value in assay [1] (setting [7]) turned out to be 15%.
`CC(C)OC(=O)CCC/C=C\C[C@@H]1[C@@H](CC[C@@H](O)CCc2ccccc2)[C@H](O)C[C@@H]1O` [latanoprost]: in assay [2], the intraocular pressure change entry is on record as “reduced”. Besides, the “intraocular pressure three hours after administration” value is on record as 15.8±5.1 mmHg in assay [1] (7-week old Vav2/3^ko, 3 μL 0.005% solution to eye, three hours later, P<0.01) and 14.5 mmHg in assay [3] (3 μL 0.005% solution to eye, three hours later, P<0.01). The “intraocular pressure twenty four hours after eye drop administration” value in assay [1] (7-week old Vav2/3^ko, 3 μL 0.005% solution, twenty four hours after) is listed as “came back to the high value which is the same as the one before the eye drop administration”. For the same compound, the “intraocular pressure before administration” value in assay [1] (7-week old Vav2/3^ko, before eye drop of 3 μL 0.005% solution) was determined as 26.3±5.0 mmHg; in assay [3] (before eye drop of 3 μL 0.005% solution), 17.4 mmHg. Moreover, the “Ratio of effect on intraocular pressure” value in assay [1] (3 μL 0.005% latanoprost solution, three hours later) is on record as “about 40%”.
Turning to `C[C@@H](N)[C@H]1CC[C@H](C(=O)Nc2ccncc2)CC1` [Y-27632], the “activity of reducing the intraocular pressure” value in assay [4], in assay [5] and in assay [6] was “did not show any activity of reducing the intraocular pressure” each time.
For `CCN[C@H]1C[C@H](C)S(=O)(=O)c2sc(S(N)(=O)=O)cc21` [dorzolamide hydrochloride], the “Ratio of effect on intraocular pressure” value in assay [1] (setting [7]) was 20%.

The values above are taken from patent US8304601B2, “Mouse model for eye disease” (priority 2007, dated 2012).
